Assay results taken from US20120157419A1, “METHODS AND COMPOSITIONS FOR TREATING ALZHEIMER'S DISEASE” (priority 2009, published 2012).

Experiments:
[1] = tested on: human astrocyte cells (ccf-sttg1 cell line); test: Cholesterol efflux from a human astrocyte cell line; assay type: cell-based; conditions: for Concentration evoking maximal cholesterol efflux / Concentration of maximal effect on cholesterol efflux: 20 hr incubation, [3H]cholesterol-loaded ccf-sttg1 cells
Procedure: Human astrocyte cells (1×10^6 cells/ml; ccf-sttg1 cell line) were incubated in 24 plates for 24-48 hours in 10% FCS (Fetal Calf Serum) in DMEM (Dulbecco's modified Eagle's Media) in a humidified 37° C. incubator in the presence of 7.5% CO2. After the incubation time Cholesterol loading was performed by incubating the cells for 20 hr with DMEM supplemented with 30 μg/ml cholesterol, 0.5 μCi/ml of [^3H]cholesterol and 0.2% fatty-acid-free BSA (Bovine Serum Albumin). After incubation, the cells were washed four times with PBS (Phosphate Buffered Saline) containing 0.2% fatty-acid-free BSA. Cells were then incubated for 20 hr in a humidified incubator at 37° C. in the presence of 10% CO2, with or without apolipoproteins (ApoE) or FABACs (Aramchol or Steamchol) at several concentrations. The medium was collected and centrifuged at 12000 g for 5 min to remove cellular debris. The aliquots of the supernatant were taken to count the effluxed [^3H]cholesterol. The remaining cell-associated [^3H]cholesterol was determined after extraction for at least 30 min with propan-2-ol. Efflux was determined in the presence, or absence, of apolipoproteins or FABACs. FABACs were dissolved in ethanol and added to the medium at the concentrations indicated. The amount of [^3H]cholesterol in the medium and cellular extract was quantified by liquid-scintillation counting. The radioactivity released into the medium was expressed as the fraction of the total radioactive cholesterol that was present in the supernatant of each well. The percentage efflux was calculated by dividing the radioactive counts in the efflux medium by the sum of the counts in the medium and cell extract.
Astrocyte brain cells (ccf-sttg1 cell line) were maintained under the same conditions as above (Example 3) and the effect of the 2 physiological stimulants ApoE3 and ApoE4 was tested. […] FABACs evoked a maximal cholesterol efflux at the concentrations of 2 microgram/ml (Steamchol) and 5 microgram/ml (Aramchol) while the apolipoproteins reached a maximal effect at the concentration of 10 microgram/ml. Furthermore, at the above concentrations, the % of cell cholesterol removed into the medium was about 25% higher with the FABACs as compared to the apolipoproteins. Note that the control efflux induced by the medium only is equal in both sets of experiments. The efflux at concentrations of 20 microgram/ml is problematic, since cell damage occurs at this concentration.

[2] = 14C-Aramchol radioactivity in the brain of rats after oral administration; assay type: in vivo, male Wistar rats; conditions: for Radioactivity in brain tissues: rat brain homogenate
Procedure: Male Wistar rats weighing 200-250 gm received a single gavage administration of ^14C-labeled-Aramchol (suspended in 0.3 ml saline), at a target dose level of 16 μCi/ml (40 μCi/kg). Aramchol is also known as “3beta-arachidyl amido, 7α,12α-dihydroxy-5-beta-cholan-24-oic acid” or “C-20 FABAC,” an amide conjugate (at position 3 of the bile acid) of arachidic and cholic acids. Groups of 3 animals were sacrificed following gavage, using ketamine anesthesia, at 3, 12, 24 or 72 hours.
Brain tissue samples were excised, homogenized in ice-cold 5M guanidine thiocyanate/HCl, pH 8, and rotated at room temperature for 4 h. Homogenates were stored at −80° C. Brain homogenates were diluted and centrifuged, and the ^14C-label was detected by mixing samples with scintillation fluid and reading in a liquid scintillation counter.

[3] = Aramchol plasma levels after single oral ascending doses in normal human volunteers; assay type: in vivo
Procedure: To 200 μL of each plasma sample, calibrator, and QC sample were added 20 μL of 2.5 μg/mL internal standard solution in 1:1 methanol:water followed by 50 μl, of 5% acetic acid and 2 mL of methyltertbutylether. The samples were mixed on a rotating shaker for 5 minutes and centrifuged. After centrifugation, the aqueous layer of the samples was frozen and the upper (organic) layer was transferred to evaporation tubes and evaporated to dryness under a gentle stream of N2 at ˜40° C. The samples were then reconstituted in 200 μL of 5:4:1 methanol:acetonitrile:20 mM ammonium acetate, mixed, and centrifuged. 100 μL of the clear upper solution was transferred to auto-sampler vials and analyzed by UPLC-MS/MS using a Waters Acquity UPLC BEH C18, 50×2.1 mm, 1.7μ column. A sample blank (blank plasma) and reagent blank (water) were also prepared, but without internal standard added (1:1 methanol:water added instead).
Normal human volunteers (n=12) ingested Aramchol in a formulation containing sodium lauryl sulfate and carboxy methyl cellulose, in a single dose containing 30, 100, 300, or 900 mg of Aramchol. Blood was sampled at 0, 1, 3, 4, 6, 9, 12, 18, 24, 36, 48, and 72 hours following ingestion. Aramchol blood levels were measured by a mass spectroscopy-based method (Goldiner et al., J Chromatogr B Analyt Technol Biomed Life Sci 2003; 795: 35-40). Aramchol plasma levels were measurable at all doses and were dose-proportional.

Row | Radioactivity in brain tissues ([2]; 3 hr after single gavage of 14C-labeled Aramchol (40 μCi/kg)) [cpm/mg tissue] | Radioactivity in brain tissues ([2]; 12 hr after single gavage of 14C-labeled Aramchol (40 μCi/kg)) [cpm/mg/tissue] | Time at which brain radioactivity disappeared ([2]; single gavage, rats) [h] | Time of peak radioactivity in brain ([2]; single gavage, rats) [h] | Time radioactivity first detected in brain ([2]; single gavage, rats) [h] | Aramchol plasma level at 24 hr ([3]; 24 hr after a single ingestion, human) | Aramchol plasma level at 36 hr ([3]; 36 hr after a single ingestion, human) | Time blood levels remain high ([3]; after a single administration, humans) | Aramchol plasma levels versus dose ([3]; single oral dose 30-900 mg, human plasma) | Structure (SMILES) | Cholesterol efflux at 2 μg/ml ([1]; 2 μg/ml, compared with 5-10 μg/ml) | Cholesterol efflux at 20 μg/ml ([1]; 20 μg/ml, compared with 5-10 μg/ml) | Concentration evoking maximal cholesterol efflux [1] [microgram/ml] | Concentration of maximal effect on cholesterol efflux [1] [µg/mL] | Effect on cholesterol efflux ([1]; ccf-sttg1 cells, versus medium) | Potency on cholesterol efflux relative to comparator ([1]; ccf-sttg1 cells)
1 | 0.15 | 0.32 | ~24 | 12 | 3 | high Aramchol levels | substantial levels | over 24 hours | dose-proportional | CCCCCCCCCCCCCCCCCCCC(=O)N[C@H]1CC[C@@]2(C)[C@@H](C1)C[C@@H](O)[C@@H]1[C@@H]2C[C@H](O)[C@]2(C)[C@@H]([C@H](C)CCC(=O)O)CC[C@@H]12 [Aramchol, 3β-arachidylamido-7α,12α, dihydroxy 5β-cholan-24-oic acid] | Lower efflux levels | decrease in cholesterol efflux | 5 | 5 to 10 | increased cholesterol efflux | 
2 |  |  |  |  |  |  |  |  |  | CCCCCCCCCCCCCCCCCC(=O)N[C@H]1CC[C@@]2(C)[C@@H](C1)C[C@@H](O)[C@@H]1[C@@H]2C[C@H](O)[C@]2(C)[C@@H]([C@H](C)CCC(=O)O)CC[C@@H]12 [Steamchol, 3β-stearoylamido-7α,12α-dihydroxy-5β-cholan-24-oic acid] |  |  | 2 | 2 |  | higher potency than Aramchol
